Source: EP4644383A1 (Jiangsu Yahong Meditech Co., Ltd., priority 2022, dated 2024)
Like-named read-outs stand apart in the source and are kept apart here.

Assays:
FGFR2 = target: T1, FGFR2 (Homo sapiens, UniProt P21802); assay: FGFR2 kinase activity inhibition assay (LanthaScreen TR-FRET); format: biochemical
T1 construct: FGFR2's cytoplasmic domain [399-821 (terminal) amino acids]; purchased Carna 08-134
Outline: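 GST-fused FGFR2 cytoplasmic domain (aa 399-821) was run as in the FGFR1 protocol: preincubated 10 min at 23 °C with compound (3-fold series from 1 µM) in 50 mM HEPES pH 7.5, 10 mM MgCl2, 4 mM DTT, 1% DMSO. A 2× mix of 28 nM fluorescein-poly GT/28 µM ATP then reacted 30 min. Tb-PY20/EDTA quench preceded the TR-FRET 520/495 read.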

FGFR4 = target: T2, FGFR4 (Homo sapiens, UniProt P22455); assay: FGFR4 kinase activity inhibition assay (LanthaScreen TR-FRET); format: biochemical
T2 construct: FGFR4's cytoplasmic domain [460-802 (terminal) amino acids]; purchased Carna 08-136
Outline: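 GST-tagged cytoplasmic domains (FGFR2 aa 399-821; FGFR4 aa 460-802) were preincubated 10 min at 23 °C with compound (top 1 µM, threefold dilutions). Then 28 nM fluorescein-poly GT and 28 µM ATP were added for 30 min at 23 °C in HEPES pH 7.5 buffer. Tb-PY20 TR-FRET 520/495 ratio gave % inhibition versus DMSO and no-enzyme controls.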

Ba/F3-BCR-FGFR1 cells = assay: Inhibition of proliferation activity of Ba/F3-BCR-FGFR1 cells (CellTiter-Glo); format: cell-based; conditions: read-out: IC50 (nM) Ba/F3-BCR-FGFR1
Method: The present experiment used CellTiter-Glo® Luminescent Cell Viability Assay (Promega: G7573) kit, which was a homogeneous cell viability detection method and determined the cell viability of cultured cells by quantifying ATP. • ① Ba/F3-BCR-FGFR1 or Ba/F3-FGFR3-BAIAP2L1 cells were cultured in 1640 complete medium (Gibco: 11879020) (10% FBS (Gibco: 10091-148)+1% Pen Strep (Gibco: 15140122)) under the condition of 37°C and 5% CO2. • (2) The cells in logarithmic growth phase were harvested and counted using a […]. The trypan blue exclusion method was used to detect cell viability to ensure the cell viability was above 90%. • ③ The cell density was adjusted using 1640 complete medium, and then, the cells were seeded into a 96-well cell culture plate at 90 µL/well with a total of 2000 cells. • ④ A 10-fold drug solution was prepared starting from a maximum drug concentration of 10 µM and 4-fold serially diluted into10 concentrations. Then, 10 µL of each of the serially diluted compounds was transferred to the corresponding experimental wells of a 96-well cell plate, with two replicates for each drug concentration. • ⑤ The 96-well plate with the cells that had been treated with the drugs was placed under the condition of 37°C and 5% CO2 to be further cultured for 72 hours, and then analyzed by CTG. • ⑥ The CTG reagent was melted and the cell plate was equilibrated to room temperature for 30 minutes. • ⑦ 50 µL of the CTG solution was added to each well. • ⑧ The cell plate was shaken on an orbital shaker for 5 minutes to lyse the cells. • ⑨ The cell plate was placed at room temperature for 20 minutes to stabilize the luminescence signal. The luminescence values were read to collect the data. • ⑩ The data were analyzed using XLFit excel plugin version 5.5.0.5, and fitted with non-linear S-curve regression to obtain the dose-response curves and thus calculate the IC50 values. Y = Bottom + (Top-Bottom)/((1+(IC50/X))^(∧) HillSlope [formula]
"Top" refers to the maximum response, "Bottom" refers to the minimum response, and "HillSlope" refers to the slope of the curve.
"Max" represents the average value of the cell control+DMSO, and "Min" represents the average value of the medium control+DMSO.

[1] = FGFR2 kinase, TR-FRET, read-out: IC50 (nM) FGFR2
[2] = FGFR4 kinase, TR-FRET, read-out: IC50 (nM) FGFR4
[3] = Ba/F3-BCR-FGFR1 cells, 72 hours, CTG

T1 sequence (P21802 399-821): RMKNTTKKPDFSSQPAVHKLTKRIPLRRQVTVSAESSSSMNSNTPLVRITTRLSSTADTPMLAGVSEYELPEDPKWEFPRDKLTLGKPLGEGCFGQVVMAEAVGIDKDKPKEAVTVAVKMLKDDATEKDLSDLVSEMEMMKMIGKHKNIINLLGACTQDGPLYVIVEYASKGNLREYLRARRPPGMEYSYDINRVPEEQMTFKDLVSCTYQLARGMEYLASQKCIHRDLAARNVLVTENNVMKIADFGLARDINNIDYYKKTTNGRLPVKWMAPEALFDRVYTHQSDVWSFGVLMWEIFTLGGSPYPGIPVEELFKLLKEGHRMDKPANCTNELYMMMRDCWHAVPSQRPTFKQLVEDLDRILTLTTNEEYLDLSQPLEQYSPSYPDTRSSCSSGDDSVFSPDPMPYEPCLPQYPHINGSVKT
T2 sequence (P22455 460-802): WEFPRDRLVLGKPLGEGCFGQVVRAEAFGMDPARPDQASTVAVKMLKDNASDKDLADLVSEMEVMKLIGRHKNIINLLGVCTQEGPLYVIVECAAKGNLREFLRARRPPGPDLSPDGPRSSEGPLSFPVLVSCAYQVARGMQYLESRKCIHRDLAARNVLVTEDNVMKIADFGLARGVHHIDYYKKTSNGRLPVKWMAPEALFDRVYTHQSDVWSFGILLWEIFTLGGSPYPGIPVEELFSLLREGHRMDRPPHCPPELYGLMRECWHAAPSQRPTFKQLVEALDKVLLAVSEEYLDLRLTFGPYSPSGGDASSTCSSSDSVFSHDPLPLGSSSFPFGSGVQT

Row | SMILES | IC50 (FGFR2; [1]) | IC50 (FGFR4; [2]) | IC50 (Ba/F3-BCR-FGFR1 cells; [3]) | IC50 (Ba/F3-BCR-FGFR1 cells; 72 h) | IC50 (FGFR2) | IC50 (FGFR4)
1 | C[C@@H](Oc1ccc2[nH]nc(-c3ccc(S(C)(=N)=O)nc3)c2c1)c1c(Cl)cncc1Cl (stereo partly drawn) [Comparative Example 85, (5-(5-((R)-1-(3,5-dichloropyridin-4-yl)ethoxy)-1H-indazol-3-yl)pyridin-2-yl)(imino)(methyl)-sulfanone, reference compound] | – | 10 to 100 nM | – | 615 nM | – | –
2 | CC(Oc1ccc2[nH]nc(-c3cnn(C)c3)c2c1)c1c(C(F)F)ccc2ncccc12 (stereo not drawn) [Example 127, 6-(difluoromethyl)-5-(1-((3-(1-methyl-1H-pyrazol-4-yl)-1H-indazol-5-yl)oxy)ethyl)quinoline] | 1 to 10 nM | > 100 nM | 941 nM | – | – | –
3 | Cc1ccc2ncccc2c1C(C)Oc1ccc2[nH]nc(-c3cnn(C)c3)c2c1 (stereo not drawn) [Example 95, 6-methyl-5-(1-((3-(1-methyl-1H-pyrazol-4-yl)-1H-indazol-5-yl)oxy)ethyl)quinolinee] | – | – | 406 nM | – | 1 to 10 nM | 10 to 100 nM
4 | CC(=O)N1CC(n2cc(-c3n[nH]c4ccc(OC(C)c5cccc6nccnc56)cc34)cn2)C1 (stereo not drawn) [Example 218, 1-(3-(4-(5-(1-(quinoxalin-5-yl)ethoxy)-1H-indazol-3-yl)-1H-pyrazol-1-yl)azetidin-1-yl)ethan-1-one] | 1 to 10 nM | 10 to 100 nM | 441 nM | – | – | –
5 | [2H]C([2H])([2H])c1cc2nccnc2c(C(C)Oc2ccc3[nH]nc(-c4cnn(C)c4)c3c2)n1 (stereo not drawn) [Example 241] | – | – | 62.3 nM | – | < 1 nM | 1 to 10 nM
6 | CC(Oc1ccc2[nH]nc(-c3cnn(C4CN(C(=O)C(C)(C)O)C4)c3)c2c1)c1cccc2nccnc12 (stereo not drawn) [Example 190, 2-hydroxy-2-methyl-1-(3-(4-(5-(1-(quinoxalin-5-yl)ethoxy)-1H-indazol-3-yl)-1H-pyrazol-1-yl)azetidin-1-yl)propan-1-one] | 1 to 10 nM | 10 to 100 nM | 425 nM | – | – | –
7 | COCC(=O)N1CC(n2cc(-c3n[nH]c4ccc(OC(C)c5cccc6nccnc56)cc34)cn2)C1 (stereo not drawn) [Example 188, 2-methoxy-1-(3-(4-(5-(1-(quinoxalin-5-yl)ethoxy)-1H-indazol-3-yl)-1H-pyrazol-1-yl)azetidin-1-yl)ethan-1-one] | 1 to 10 nM | 10 to 100 nM | 277 nM | – | – | –
8 | CC(Oc1ccc2[nH]nc(-c3cnn(C)c3)c2c1)c1cccc2ncccc12 (stereo not drawn) [Example 88, 5-(1-((3-(1-methyl-1H-pyrazol-4-yl)-1H-indazol-5-yl)oxy)ethyl)quin oline] | 1 to 10 nM | 10 to 100 nM | 3420 nM | – | – | –

Further lines, with some results ahead:

Row | IC50 (FGFR2; [1]) | IC50 (FGFR4; [2]) | IC50 (Ba/F3-BCR-FGFR1 cells; [3]) | SMILES | IC50 (Ba/F3-BCR-FGFR1 cells; 72 h) | IC50 (FGFR2) | IC50 (FGFR4)
9 | 1 to 10 nM | 10 to 100 nM | 55.3 nM | Cc1cc2nccnc2c(C(C)Oc2ccc3[nH]nc(-c4cnn(C)c4)c3c2)n1 (stereo not drawn) [Example 183, 7-methyl-5-(1-((3-(1-methyl-1H-pyrazol-4-yl)-1H-indazol-5-yl)oxy)ethyl)pyridino [3,4-b]pyrazine] | – | – | –
10 | 1 to 10 nM | 10 to 100 nM | 592 nM | C[C@@H](Oc1cc(F)c2[nH]nc(-c3cnn(CCN4CCOCC4)c3)c2c1)c1c(Cl)cncc1Cl [Example 12, (R)-4-(2-(4-(5-(1-(3,5-dichloropyridin-4-yl)ethoxy)-7-fluoro-1H-indazol-3-yl)-1H-pyrazol-1-yl)ethyl)morph oline] | – | – | –
11 | – | – | 390 nM | CC(Oc1cc2c(-c3cnn(C)c3)n[nH]c2cc1F)c1cc(Cl)cc2nccnc12 (stereo not drawn) [Example 227, 7-chloro-5-(1-((6-fluoro-3-(1-methyl-1H-pyrazol-4-yl)-1H-indazol-5-yl)oxy)ethyl)qu inoxaline] | – | – | –
12 | 1 to 10 nM | 10 to 100 nM | 161 nM | CC(Oc1ccc2[nH]nc(-c3cnn(C)c3)c2c1)c1nc(C(F)F)cc2nccnc12 (stereo not drawn) [Example 236, 7-(difluoromethyl)-5-(1-((3-(1-methyl-1H-pyrazol-4-yl)-1H-indazol-5-yl)oxy)ethyl)pyridino[3,4-b]pyrazine] | – | – | –
13 | – | – | 177 nM | C[C@@H](Oc1ccc2[nH]nc(-c3cnn(CCN4CCN(C)C(=O)C4)c3)c2n1)c1c(Cl)cncc1Cl [Example 54, (R)-4-(2-(4-(5-(1-(3,5-dichloropyridin-4-yl)ethoxy)-1H-pyrazolo[4,3-b]pyridin-3-yl)-1H-pyrazol-1-yl)ethyl)-1-methylpiperazin-2-one] | – | – | –
14 | 1 to 10 nM | 1 to 10 nM | 98.6 nM | CC(Oc1ccc2[nH]nc(-c3cnn(C)c3)c2c1)c1cccc2nccnc12 (stereo not drawn) [Example 92, 5-(1-((3-(1-methyl-1H-pyrazol-4-yl)-1H-indazol-5-yl)oxy)ethyl)quin oxaline] | – | – | –
15 | 1 to 10 nM | 10 to 100 nM | 377 nM | CC(Oc1ccc2[nH]nc(-c3cnn(C)c3)c2c1)c1cc(Cl)cc2nccnc12 (stereo not drawn) [Example 136, 7-chloro-5-(1-((3-(1-methyl-1H-pyrazol-4-yl)-1H-indazol-5-yl)oxy)ethyl)qu inoxaline] | – | – | –
16 | – | – | 246 nM | CC(Oc1ccc2[nH]nc(-c3cnn(C)c3)c2c1)c1cccn2ncnc12 (stereo not drawn) [Example 101, 8-(1-((3-(1-methyl-1H-pyrazol-4-yl)-1H-indazol-5-yl)oxy)ethyl)-[1,2,4]triazolo[1,5-a]pyridine] | – | – | –
17 | – | – | 88.5 nM | C[C@@H](Oc1ccc2[nH]nc(-c3cnn(CCN4CCS(=O)(=O)CC4)c3)c2n1)c1c(Cl)cncc1Cl [Example 55, (R)-4-(2-(4-(5-(1-(3,5-dichloropyridin-4-yl)ethoxy)-1H-pyrazolo[4,3-b]pyridin-3-yl)-1H-pyrazol-1-yl)ethyl)thiomorph oline 1,1-dioxide] | – | – | –
18 | < 1 nM | 1 to 10 nM | 38 nM | C[C@@H](Oc1ccc2[nH]nc(-c3cnn(C)c3)c2n1)c1c(Cl)cncc1Cl [Example 29, (R)-5-(1-(3,5-dichloropyridin-4-yl)ethoxy)-3-(1-methyl-1H-pyrazol-4-yl)-1H-pyrazolo[4,3-b]pyridine] | – | – | –
19 | 1 to 10 nM | 10 to 100 nM | 1190 nM | CC(Oc1ccc2[nH]nc(-c3cnn(C)c3)c2c1)c1c(CF)ccc2ncccc12 (stereo not drawn) [Example 130, 6-(fluoromethyl)-5-(1-((3-(1-methyl-1H-pyrazol-4-yl)-1H-indazol-5-yl)oxy)ethyl)q uinoline] | – | – | –
